These results are taken from ChEMBL document CHEMBL1201862, “PubChem BioAssay data set” (2004).

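Compound exposure: 48 hours, 5 concentrations, 96-well plates. The concentration for 50% growth inhibition is given as GI50.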 The source made the active and inactive calls. Rule as the data show it: active = GI50 up to about 1.1 µM and inactive = higher.

Test systems include CAKI-1; HCT-116; HOP-62; HT-29; Hs-578T; K562; MCF7; MDA-MB-231; OVCAR-4; OVCAR-5; RPMI-8226; RXF 393; SK-MEL-5; TK-10; UACC-257; UO-31; CCRF-CEM; LOX IMVI; NCI-H226; T47D.
Common to all, as to experiment: NCI anticancer screen, dose series, 48 h

For the compound `COC(=O)C1CCC(=S)N1C(C)=O` (centres undefined), the GI50 in the test on CAKI-1, with HCT-116, with HOP-62, in the test with HT-29, with Hs-578T and in the test with K562 was > 100 µM (inactive) each time. Also, the GI50 in the test with MCF7, with MDA-MB-231, with OVCAR-4, with OVCAR-5, in the test with RPMI-8226 and in the test on RXF 393 was > 100 µM (inactive) each time. Besides, the GI50 in the test with SK-MEL-5, in the test on TK-10, in the test on UACC-257 and in the test with UO-31 was > 100 µM (inactive) in each case.
Turning to `O[C@H]1[C@@H]2OC[C@@H](O)[C@H](OCc3ccccc3)[C@@](COCc3ccccc3)(O2)[C@@H]1OCc1ccccc1`, the GI50 with CAKI-1 was < 0.01 µM (active); in the test on CCRF-CEM it was 17.4 µM (inactive); in the test with HCT-116, 20.1 µM (inactive); in the test with HOP-62 it was 17.2 µM (inactive); with HT-29, 15.2 µM (inactive); in the test on Hs-578T it was 14.7 µM (inactive). The GI50 with K562 was 25.4 µM (inactive); in the test on LOX IMVI, 18.5 µM (inactive); in the test on MCF7 it was 19.3 µM (inactive); with MDA-MB-231 it was 17 µM (inactive); in the test on OVCAR-4 it was 12 µM (inactive); with OVCAR-5, 15.1 µM (inactive). Further, the GI50 was 10.4 µM (inactive) in the test with RPMI-8226; 20.2 µM (inactive) with RXF 393; 17.2 µM (inactive) with TK-10; 14.8 µM (inactive) with UACC-257; 16.7 µM (inactive) in the test with UO-31.
Consider `O=c1c2cc(-c3ccccc3)cnc2sn1-c1ccc(Br)cc1`, for which the GI50 in the test with CAKI-1 is > 100 µM (inactive); with CCRF-CEM, 95.5 µM (inactive); in the test with HCT-116 it was > 100 µM (inactive); in the test with HOP-62, > 100 µM (inactive); in the test on HT-29, > 100 µM (inactive); in the test with K562, > 100 µM (inactive). Also, the GI50 in the test on MCF7, in the test with MDA-MB-231, with NCI-H226, in the test on OVCAR-4, with OVCAR-5 and with RPMI-8226 was > 100 µM (inactive) throughout. The GI50 in the test with RXF 393, in the test on T47D, in the test on UACC-257 and in the test with UO-31 was > 100 µM (inactive) throughout.
For `CCN(CC)CCNc1nc2ccc([N+](=O)[O-])cc2[n+]([O-])n1`, the GI50 in the test on CAKI-1 is 41.9 µM (inactive); with CCRF-CEM, 27 µM (inactive); with HCT-116 it was 15.7 µM (inactive); with HT-29 it was 7.91 µM (inactive); in the test with K562, 13.2 µM (inactive); in the test on MCF7, 2.24 µM (inactive). The GI50 in the test on MDA-MB-231 is 15.5 µM (inactive); with NCI-H226 it was 83 µM (inactive); in the test on OVCAR-4, 13.7 µM (inactive); with OVCAR-5, 16 µM (inactive); in the test with RPMI-8226 it was 14.7 µM (inactive); in the test on RXF 393 it was 46.7 µM (inactive). Also, the GI50 in the test on SK-MEL-5 was 10.5 µM (inactive); in the test on T47D, 20.1 µM (inactive); in the test with TK-10, 43.1 µM (inactive); in the test with UACC-257, 15.8 µM (inactive); in the test on UO-31, 37.6 µM (inactive).
For the compound `Cc1ccnc(NC(=S)Nc2cccc(Cl)c2)c1`, the GI50 in the test with CAKI-1 is > 100 µM (inactive); in the test on CCRF-CEM, > 100 µM (inactive); in the test with HCT-116, > 100 µM (inactive); in the test on HOP-62, 78.9 µM (inactive); in the test with HT-29 it was > 100 µM (inactive); with Hs-578T it was 74.1 µM (inactive). For the same compound, the GI50 in the test on K562, with LOX IMVI, with MCF7, with OVCAR-4, in the test on OVCAR-5 and with RPMI-8226 was > 100 µM (inactive) in each case. For the same compound, the GI50 in the test with RXF 393, with SK-MEL-5, in the test on T47D, in the test on TK-10, in the test on UACC-257 and in the test with UO-31 was > 100 µM (inactive) throughout.
Regarding `CN(C)c1ccc(C2C(Cl)C(=O)N2NC(=O)c2c(Cl)c(Cl)c(Cl)c(Cl)c2-c2nc3ccccc3[nH]2)cc1` (centres undefined), the GI50 in the test with CAKI-1 is 15.6 µM (inactive); in the test with CCRF-CEM, 3.36 µM (inactive); in the test on HCT-116 it was 5.2 µM (inactive); in the test on HT-29 it was 22.3 µM (inactive); in the test on Hs-578T it was 33.3 µM (inactive); in the test with K562, 4.44 µM (inactive). In addition, the GI50 is 7.4 µM (inactive) with LOX IMVI; 5.53 µM (inactive) in the test with MCF7; 15.8 µM (inactive) in the test on NCI-H226; 31.3 µM (inactive) in the test on OVCAR-5; 2.48 µM (inactive) in the test on RXF 393; 16.1 µM (inactive) with SK-MEL-5. For the same compound, the GI50 with T47D is 6.62 µM (inactive); in the test with UACC-257, 20.5 µM (inactive); in the test on UO-31, 19.4 µM (inactive).
As to `O=C(NCCO)Nc1c(C(F)(F)F)cc(-c2ccccc2)[nH]c1=O`, the GI50 with CAKI-1, in the test with CCRF-CEM, in the test with HCT-116, in the test on HOP-62, with HT-29 and in the test with K562 was > 100 µM (inactive) each time. For the same compound, the GI50 in the test with LOX IMVI, in the test with MCF7, in the test on MDA-MB-231, with NCI-H226, in the test on OVCAR-4 and in the test with OVCAR-5 was > 100 µM (inactive) in each case. Further, the GI50 with RPMI-8226, in the test with RXF 393, in the test on SK-MEL-5, with T47D, with TK-10 and in the test with UACC-257 was > 100 µM (inactive) throughout. Further, in the test with UO-31, the GI50 was > 100 µM (inactive).
Turning to `O=C(Nc1ccccc1F)c1cc2ccc(O)cc2o/c1=N\c1cccc(F)c1`, the GI50 is 19.5 µM (inactive) with CAKI-1; 3.31 µM (inactive) with CCRF-CEM; 11.1 µM (inactive) with HCT-116; 19 µM (inactive) in the test with HOP-62; 37.5 µM (inactive) in the test with HT-29; 25.6 µM (inactive) with Hs-578T. For the same compound, the GI50 is 4.42 µM (inactive) in the test with K562; 9.89 µM (inactive) with LOX IMVI; 15.1 µM (inactive) with MCF7; 9.86 µM (inactive) with OVCAR-4; 23.7 µM (inactive) with OVCAR-5; 3.24 µM (inactive) in the test on RPMI-8226. In addition, the GI50 with SK-MEL-5 was 5.22 µM (inactive); in the test on T47D it was 4.25 µM (inactive); in the test with UACC-257, 19.5 µM (inactive); in the test on UO-31 it was 13 µM (inactive).
